# Assays:
# human Bub1 = human Bub1 (Homo sapiens (Human), UniProt O43683); assay: Bub1 kinase assay (TR-FRET); assay type: biochemical; settings: 10 μM ATP; read-out: Bub1 avg (IC50 [mol/l])
# Source text: Bub1-inhibitory activity of compounds of the present invention was quantified employing the Bub1 TR-FRET assay as described in the following paragraphs.
# N-terminally His6-tagged recombinant catalytic domain of human Bub1 (amino acids 704-1085), expressed in insect cells (Hi5) and purified by Ni-NTA affinity chromatography and subsequent size exclusion chromatography, was used as enzyme. As substrate for the kinase reaction the biotinylated peptide biotin-Ahx-VLLPKKSFAEPG (C-terminus in amid form) was used which can be purchased e.g. form the company Biosyntan (Berlin, Germany).
# For the assay 50 nl of a 100 fold concentrated solution of the test compound in DMSO was pipetted into a black low volume 384 well microtiter plate (Greiner Bio-One, Frickenhausen, Germany), 2 μl of a solution of Bub1 in aqueous assay buffer [50 mM Tris/HCl pH 7.5, 10 mM magnesium chloride (MgCl2), 200 mM potassium chloride (KCl), 1.0 mM dithiothreitol (DTT), 0.1 mM sodium ortho-vanadate, 1% (v/v) glycerol, 0.01% (w/v) bovine serum albumine (BSA), 0.005% (v/v) Trition X-100 (Sigma), 1× Complete EDTA-free protease inhibitor mixture (Roche)] were added and the mixture was incubated for 15 min at 22° C. to allow pre-binding of the test compounds to the enzyme before the start of the kinase reaction. Then the kinase reaction was started by the addition of 3 μl of a solution of adenosine-tri-phosphate (ATP, 16.7 μM=>final conc. in the 5 μl assay volume is 10 μM) and substrate (1.67 μM=>final conc. in the 5 μl assay volume is 1 μM) in assay buffer and the resulting mixture was incubated for a reaction time of 60 min at 22° C. The concentration of Bub1 was adjusted depending of the activity of the enzyme lot and was chosen appropriate to have the assay in the linear range, typical concentrations were in the range of 200 ng/ml. The reaction was stopped by the addition of 5 μl of a solution of TR-FRET detection reagents (0.2 μM streptavidine-XL665 [Cisbio Bioassays, Codolet, France] and 1 nM anti-phosho-Serine antibody [Merck Millipore, cat. #35-001] and 0.4 nM LANCE EU-W1024 labeled anti-mouse IgG antibody [Perkin-Elmer, product no. AD0077, as an alternative a Terbium-cryptate-labeled anti-mouse IgG antibody from Cisbio Bioassays can be used]) in an aqueous EDTA-solution (50 mM EDTA, 0.2% (w/v) bovine serum albumin in 100 mM HEPES pH 7.5).
# The resulting mixture was incubated 1 h at 22° C. to allow the formation of complex between the phosphorylated biotinylated peptide and the detection reagents. Subsequently the amount of phosphorylated substrate was evaluated by measurement of the resonance energy transfer from the Eu-chelate to the streptavidine-XL. Therefore, the fluorescence emissions at 620 nm and 665 nm after excitation at 350 nm was measured in a TR-FRET reader, e.g. a Rubystar or Pherastar (both from BMG Labtechnologies, Offenburg, Germany) or a Viewlux (Perkin-Elmer). The ratio of the emissions at 665 nm and at […] was taken as the measure for the amount of phosphorylated substrate. The data were normalised (enzyme reaction without inhibitor=0% inhibition, all other assay components but no enzyme=100% inhibition).
# HeLa = assay: Proliferation assay (crystal violet), HeLa; assay type: cell-based; settings: Homo sapiens, 96 h, 4 days, read-out: Inhibition of proliferation IC50 HeLa
# Protocol: Cultivated tumor cells (cells were ordered from ATCC, except HeLa-MaTu and HeLa-MaTu-ADR, which were ordered from EPO-GmbH, Berlin) were plated at a density of 1000 to 5000 cells/well, depending on the growth rate of the respective cell line, in a 96-well multititer plate in 200 μL of their respective growth medium supplemented 10% fetal calf serum. After 24 hours, the cells of one plate (zero-point plate) were stained with crystal violet (see below), while the medium of the other plates was replaced by fresh culture medium (200 μl), to which the test substances were added in various concentrations (0 μM, as well as in the range of 0.001-10 μM; the final concentration of the solvent dimethyl sulfoxide was 0.5%). The cells were incubated for 4 days in the presence of test substances. Cell proliferation was determined by staining the cells with crystal violet: the cells were fixed by adding 20 μl/measuring point of an 11% glutaric aldehyde solution for 15 minutes at room temperature. After three washing cycles of the fixed cells with water, the plates were dried at room temperature. The cells were stained by adding 100 μl/measuring point of a 0.1% crystal violet solution (pH 3.0). After three washing cycles of the stained cells with water, the plates were dried at room temperature. The dye was dissolved by adding 100 μl/measuring point of a 10% acetic acid solution. Absorption was determined by photometry at a wavelength of 595 nm. The change of cell number, in percent, was calculated by normalization of the measured values to the absorption values of the zero-point plate (=0%) and the absorption of the untreated (0 μm) cells (=100%). The IC50 values were determined by means of a 4 parameter fit.
# Chain of human Bub1 (O43683 704-1085): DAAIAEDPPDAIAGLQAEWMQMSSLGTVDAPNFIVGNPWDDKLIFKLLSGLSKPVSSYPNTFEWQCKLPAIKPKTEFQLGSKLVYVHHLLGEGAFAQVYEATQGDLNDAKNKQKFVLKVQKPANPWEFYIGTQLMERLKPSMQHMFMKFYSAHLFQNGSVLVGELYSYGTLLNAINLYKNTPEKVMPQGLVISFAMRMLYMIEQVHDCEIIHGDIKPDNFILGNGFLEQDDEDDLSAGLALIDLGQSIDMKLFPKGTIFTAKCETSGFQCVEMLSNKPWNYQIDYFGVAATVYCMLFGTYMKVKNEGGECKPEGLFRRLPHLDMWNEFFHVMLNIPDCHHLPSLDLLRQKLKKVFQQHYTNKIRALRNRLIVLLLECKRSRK
SMILES,IC50 (human Bub1) [µM],IC50 (HeLa) [µM]
"CCc1ccccc1NC(=O)c1c(C)nsc1Nc1cnc2cccc(C)c2n1 [Example 33, N-(2-Ethylphenyl)-3-methyl-5-[(8-methylquinoxalin-2-yl)amino]-1,2-thiazole-4-carboxamide]",> 20,2.2
"CCc1ccccc1NC(=O)c1c(C)nsc1Nc1ncnc2sccc12 [Example 12, N-(2-Ethylphenyl)-3-methyl-5-(thieno[2,3-d]pyrimidin-4-ylamino)-1,2-thiazole-4-carboxamide]",> 20,9.5
"COc1ccc(NC(=O)c2c(C)nsc2Nc2cc(C#N)ccn2)cn1 [Example 25, 5-[(4-Cyanopyridin-2-yl)amino]-N-(6-methoxypyridin-3-yl)-3-methyl-1,2-thiazole-4-carboxamide]",> 20,> 10
"COc1ccc(NC(=O)c2c(C)nsc2Nc2cnc3cc(Cl)ccc3n2)cn1 [Example 23, 5-[(6-Chloroquinoxalin-2-yl)amino]-N-(6-methoxypyridin-3-yl)-3-methyl-1,2-thiazole-4-carboxamide]",> 20,1.8
"COc1ccc(NC(=O)c2c(C)nsc2Nc2nc3c(C(F)(F)F)cccc3s2)cn1 [Example 48, N-(6-Methoxypyridin-3-yl)-3-methyl-5-{[4-(trifluoromethyl)-1,3-benzothiazol-2-yl]-amino}-1,2-thiazole-4-carboxamide]",> 20,0.58
"CCc1ccccc1NC(=O)c1c(C)nsc1Nc1ncnc2ccsc12 [Example 13, N-(2-Ethylphenyl)-3-methyl-5-(thieno[3,2-d]pyrimidin-4-ylamino)-1,2-thiazole-4-carboxamide]",> 20,> 10
"Cc1nsc(Nc2ccc(C#N)cn2)c1C(=O)Nc1ccc(Cl)c(F)c1 [Example 52, N-(4-Chloro-3-fluorophenyl)-5-[(5-cyanopyridin-2-yl)amino]-3-methyl-1,2-thiazole-4-carboxamide]",> 20,0.24
"CCc1ccccc1NC(=O)c1c(C)nsc1Nc1cnccn1 [Example 1, N-(2-Ethylphenyl)-3-methyl-5-(pyrazin-2-ylamino)-1,2-thiazole-4-carboxamide]",> 20,8.8
"COC(=O)c1cnc(Nc2snc(C)c2C(=O)Nc2ccc(OC)nc2)cn1 [Example 32, Methyl 5-({4-[(6-methoxypyridin-3-yl)carbamoyl]-3-methyl-1,2-thiazol-5-yl}amino)-pyrazine-2-carboxylate]",> 20,8.3
"CCc1ccccc1NC(=O)c1c(C)nsc1Nc1ccc(C#N)cn1 [Example 7, 5-[(5-Cyanopyridin-2-yl)amino]-N-(2-ethylphenyl)-3-methyl-1,2-thiazole-4-carboxamide]",> 20,3
"Cc1nsc(Nc2cc(C#N)ccn2)c1C(=O)Nc1ccc(F)c(F)c1 [Example 27, 5-[(4-Cyanopyridin-2-yl)amino]-N-(3,4-difluorophenyl)-3-methyl-1,2-thiazole-4-carboxamide]",> 20,2
"Cc1nsc(Nc2nc3c(C(F)(F)F)cccc3s2)c1C(=O)Nc1ccc(Cl)c(F)c1 [Example 53, N-(4-Chloro-3-fluorophenyl)-3-methyl-5-{[4-(trifluoromethyl)-1,3-benzothiazol-2-yl]amino}-1,2-thiazole-4-carboxamide]",> 20,1
"Cc1nsc(Nc2cnc3cc(F)ccc3n2)c1C(=O)Nc1ccc(F)c(F)c1 [Example 46, N-(3,4-Difluorophenyl)-5-[(6-fluoroquinoxalin-2-yl)amino]-3-methyl-1,2-thiazole-4-carboxamide]",> 20,0.13
"CCOC(=O)c1cnc(Nc2snc(C)c2C(=O)Nc2ccc(OC)nc2)s1 [Example 29, Ethyl 2-({4-[(6-methoxypyridin-3-yl)carbamoyl]-3-methyl-1,2-thiazol-5-yl}amino)-1,3-thiazole-5-carboxylate]",> 20,2.8
"CCc1ccccc1NC(=O)c1c(C)nsc1Nc1nc(C)nc2sccc12 [Example 38, N-(2-Ethylphenyl)-3-methyl-5-[(2-methylthieno[2,3-d]pyrimidin-4-yl)amino]-1,2-thiazole-4-carboxamide]",> 20,5.3

# Further lines, results first:
IC50 (human Bub1) [µM],IC50 (HeLa) [µM],SMILES
> 20,1.9,"COc1ncc(NC(=O)c2c(C)nsc2Nc2ccc(C#N)cn2)cc1C [Example 120, 5-[(5-Cyanopyridin-2-yl)amino]-N-(6-methoxy-5-methylpyridin-3-yl)-3-methyl-1,2-thiazole-4-carboxamide]"
> 20,10,"Cc1nsc(Nc2cncc(C(=O)N(C)C)n2)c1C(=O)Nc1ccc(F)c(F)c1 [Example 104, 6-({4-[(3,4-Difluorophenyl)-carbamoyl]-3-methyl-1,2-thiazol-5-yl}amino)-N,N-dimethyl-pyrazine-2-carboxamide]"
> 20,3.3,"CCNC(=O)c1csc(Nc2snc(C)c2C(=O)Nc2ccc(F)c(F)c2)n1 [Example 99, N-(3,4-Difluorophenyl)-5-{[4-(ethylcarbamoyl)-1,3-thiazol-2-yl]amino}-3-methyl-1,2-thiazole-4-carboxamide]"
> 20,2.9,"Cc1nsc(Nc2nc3c(C(F)(F)F)ccnc3s2)c1C(=O)Nc1ccc(Cl)c(F)c1 [Example 103, N-(4-Chloro-3-fluorophenyl)-3-methyl-5-{[7-(trifluoromethyl)[1,3]thiazolo[5,4-b]pyridin-2-yl]amino}-1,2-thiazole-4-carboxamide]"
> 20,3.7,"Cc1nsc(Nc2cncc(C(=O)N3CCCC3)n2)c1C(=O)Nc1ccc(F)c(F)c1 [Example 106, N-(3,4-Difluorophenyl)-3-methyl-5-{[6-(pyrrolidin-1-ylcarbonyl)pyrazin-2-yl]amino}-1,2-thiazole-4-carboxamide]"
> 20,10,"CCOC(=O)c1coc(Nc2snc(C)c2C(=O)Nc2ccc(F)c(F)c2)n1 [Example 98, Ethyl 2-({4-[(3,4-difluoro-phenyl)carbamoyl]-3-methyl-1,2-thiazol-5-yl}amino)-1,3-oxazole-4-carboxylate]"
> 20,7.3,"Cc1nsc(Nc2nc3c(C(F)(F)F)cccc3s2)c1C(=O)Nc1ccc(Cl)c(Cl)c1 [Example 102, N-(3,4-Dichlorophenyl)-3-methyl-5-{[4-(trifluoromethyl)-1,3-benzothiazol-2-yl]amino}-1,2-thiazole-4-carboxamide]"
> 20,0.88,"Cc1nsc(Nc2cnc3ccccc3n2)c1C(=O)Nc1ccc(Oc2ccc(F)cc2F)nc1 [Example 113, N-[6-(2,4-Difluorophenoxy)pyridin-3-yl]-3-methyl-5-(quinoxalin-2-ylamino)-1,2-thiazole-4-carboxamide]"
